{"source": "paper PMC6017552", "about": "“Interaction between Saikosaponin D, Paeoniflorin, and Human Serum Albumin” (Molecules : A Journal of Synthetic Chemistry and Natural …, 2018)", "biological_target": "T1, human serum albumin (HSA) (Homo sapiens, UniProt P02768)", "T1 construct": "gene ALB; mature full-length, 585 residues, 66500 Da, single chain", "T1 sequence (P02768 25-609)": "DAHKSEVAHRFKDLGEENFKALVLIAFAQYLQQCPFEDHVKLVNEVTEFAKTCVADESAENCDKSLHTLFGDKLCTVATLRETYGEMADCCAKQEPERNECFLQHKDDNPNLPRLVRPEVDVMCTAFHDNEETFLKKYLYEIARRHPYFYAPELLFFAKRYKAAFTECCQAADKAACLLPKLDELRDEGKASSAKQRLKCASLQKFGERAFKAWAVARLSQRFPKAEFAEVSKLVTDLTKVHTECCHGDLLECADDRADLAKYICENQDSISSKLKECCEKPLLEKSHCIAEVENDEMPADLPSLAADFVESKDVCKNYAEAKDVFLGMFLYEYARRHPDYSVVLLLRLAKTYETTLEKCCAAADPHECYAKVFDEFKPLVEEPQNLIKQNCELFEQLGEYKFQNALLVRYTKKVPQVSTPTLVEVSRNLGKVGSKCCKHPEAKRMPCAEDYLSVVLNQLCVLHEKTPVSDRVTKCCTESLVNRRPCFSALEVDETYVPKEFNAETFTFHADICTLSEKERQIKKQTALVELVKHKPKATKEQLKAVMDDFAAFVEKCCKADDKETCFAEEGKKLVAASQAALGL", "experiment": "intrinsic fluorescence quenching, double-log plot", "type": "binding", "details": "20 °C, 0.01 M PBS pH 7.4, 1 μM HSA, 0-18 nM ligand, λex 280 nm", "text": "intrinsic fluorescence quenching, double-log plot on human serum albumin (HSA)", "data": [{"smiles": "C[C@@]12C[C@@]3(O)O[C@@H](O1)[C@]1(COC(=O)c4ccccc4)[C@H]3C[C@@]12O[C@@H]1O[C@H](CO)[C@@H](O)[C@H](O)[C@H]1O", "note": "[paeoniflorin]", "values": [{"measurement": "Ka (mol.L^-1) ± SD", "value": "7.39 × 10^4 ± 0.174 mol·L^-1"}]}]}
